Assay results as given in US20050054006A1, “Combinatorial fluorescent library based on the styryl scaffold” (New York University, priority 2003, published 2005).
Entries after “also recorded” stand apart in the source; their conditions may differ.

How the values were obtained:
[1] = tested on: UACC-62 human melanoma cells; assay: Organelle localization in live cells by fluorescence microscopy; conditions: live UACC-62 cells, fluorescence microscope λex=405, 490, 570 nm; λem>510 nm
[2] = Fluorescence excitation/emission of the styryl dye library compounds; type: physicochemical

Compound	LOCALIZATION [1]	EM(nm) ([2]; EX/EM peak no. 1)	EX(nm) ([2]; EX/EM peak no. 1)	EM(nm) ([2]; EX/EM peak no. 2)	EX(nm) ([2]; EX/EM peak no. 2)
O=Cc1ccccc1C=Cc1cc[n+](C23CC4CC(CC(C4)C2)C3)cc1.[Br-] [Compound B25]	CYTO	570 nm	430 nm	–	–
Fc1c(F)c(F)c(C=Cc2cc[n+](C34CC5CC(CC(C5)C3)C4)cc2)c(F)c1F.[Br-] [Compound B31]	MITO	580 nm	430 nm	–	–
C(=Cc1ccc2ccccc2c1)c1cc[n+](C23CC4CC(CC(C4)C2)C3)cc1.[Br-] [Compound B33]	MITO and CYTO and VESICLE	500 nm	350-420 nm	580	360-400 nm
O=[N+]([O-])c1ccccc1C=CC=Cc1cc[n+](C23CC4CC(CC(C4)C2)C3)cc1.[Br-] [Compound B36]	MITO	520 nm	420 nm	–	–
CN(C)c1ccc(C=CC=Cc2cc[n+](C34CC5CC(CC(C5)C3)C4)cc2)cc1.[Br-] [Compound B37]	MITO	700 nm	–	–	–
COc1cc(OC)c(OC)cc1C=Cc1cc[n+](C23CC4CC(CC(C4)C2)C3)cc1.[Br-] [Compound B38]	NUCLEI and MITO	580 nm	400-480 nm	–	–
C[n+]1ccccc1C=Cc1ccc(OCc2ccccc2)c(OCc2ccccc2)c1.[I-] [Compound C12]	MITO? and ER?	520 nm	390 (broad) nm	–	–
CN(C)c1ccc(C=Cc2cccc[n+]2C)cc1.[I-] [Compound C19]	MITO	580 nm	460 (broad) nm	–	–
COc1ccc2ccccc2c1C=Cc1cccc[n+]1C.[I-] [Compound C23]	CYTO	530 nm	420 nm	–	–
COc1ccc2ccccc2c1/C=C/c1c(C)ccc[n+]1C.[I-] [Compound D23]	CYTO	510 nm	420(broad) nm	–	–
Cc1ccc[n+](C)c1C=CC=Cc1ccc(N(C)C)cc1.[I-] [Compound D37]	MITO	650 nm	470(broad) nm	–	–
CCc1ccc(C=Cc2ccc(N(C)C)cc2)[n+](C)c1.[I-] [Compound E19]	MITO	580 nm	460(broad) nm	–	–
CCc1ccc(C=Cc2c(OC)ccc3ccccc23)[n+](C)c1.[I-] [Compound E23]	CYTO	510 nm	420(broad) nm	–	–
CCc1ccc(C=C/C=C/c2ccc(N(C)C)cc2)[n+](C)c1.[I-] [Compound E37]	MITO and NUCLEOLI	670 nm	520 nm	–	–
C[n+]1ccc(C=Cc2c[nH]c3ccccc23)cc1Br.[I-] [Compound F24]	VESICLE	550 nm	460 nm	–	–
Cc1ccc(C=Cc2cc[n+](C)c3ccccc23)cc1.[I-] [Compound G8]	MITO	650 nm	440 nm	–	–
COc1ccccc1C=Cc1cc[n+](C)c2ccccc12.[I-] [Compound G9]	MITO	630 nm	430 nm	–	–
C[n+]1ccc(C=Cc2ccc(OCc3ccccc3)c(OCc3ccccc3)c2)c2ccccc21.[I-] [Compound G12]	MITO and NUCLEOLI	590 nm	420-460 nm	–	–
COc1ccc(C=Cc2cc[n+](C)c3ccccc23)c2ccccc12.[I-] [Compound G14]	MITO	620 nm	480(broad) nm	–	–
CC(=O)Nc1ccc(/C=C/c2cc[n+](C)c3ccccc23)cc1.[I-] [Compound G18]	MITO	670 nm	430 nm	–	–
CN(C)c1ccc(/C=C/c2cc[n+](C)c3ccccc23)cc1.[I-] [Compound G19]	MITO	670 nm	500 nm	–	–
C[n+]1ccc(C=Cc2ccccc2[N+](=O)[O-])c2ccccc21.[I-] [Compound G20]	MITO	670 nm	490-540 nm	–	–

Compound	LOCALIZATION [1]	EM(nm) ([2]; EX/EM peak no. 1)	EX(nm) ([2]; EX/EM peak no. 1)	EM(nm) ([2]; EX/EM peak no. 2)	EX(nm) ([2]; EX/EM peak no. 2)
C[n+]1ccc(/C=C/c2cccc([N+](=O)[O-])c2)c2ccccc21.[I-] [Compound G21]	MITO	670 nm	450-550 nm	–	–
COc1ccc2ccccc2c1C=Cc1cc[n+](C)c2ccccc12.[I-] [Compound G23]	VESICLE	610 nm	450-500 nm	–	–
C[n+]1ccc(/C=C/c2c[nH]c3ccccc23)c2ccccc21.[I-] [Compound G24]	MITO	610 nm	490 nm	–	–
CN(C)c1ccc(C=Cc2cc[n+](C)c3ccccc23)c2ccccc12.[I-] [Compound G27]	MITO	720 nm	450-550(broad) nm	–	–
C[n+]1ccc(C=Cc2c(F)c(F)c(F)c(F)c2F)c2ccccc21.[I-] [Compound G31]	MITO and NUCLEOLI	650 nm	430 nm	–	–
C[n+]1ccc(C=Cc2cccc3ccccc23)c2ccccc21.[I-] [Compound G32]	MITO	560 nm	430 nm	–	–
C[n+]1ccc(C=Cc2ccc3ccccc3c2)c2ccccc21.[I-] [Compound G33]	MITO and CYTO	550 nm	360-470 nm	–	–
COc1cc(OC)c(OC)cc1C=Cc1cc[n+](C)c2ccccc12.[I-] [Compound G38]	VESICLE and CYTO and NUCLEI	640 nm	420 nm	–	–
C[n+]1c(C=CCc2ccccc2)ccc2ccccc21.[I-] [Compound H1]	MITO	640 nm	–	–	–
C[n+]1c(C=Cc2ccccc2Br)ccc2ccccc21.[I-] [Compound H3]	MITO	640 nm	530 nm	–	–
COc1ccccc1C=Cc1ccc2ccccc2[n+]1C.[I-] [Compound H9]	MITO	650 nm	–	–	–
COc1ccc(C=Cc2ccc3ccccc3[n+]2C)cc1.[I-] [Compound H10]	MITO	650 nm	530 nm	–	–
C[n+]1c(C=Cc2ccc(OCc3ccccc3)c(OCc3ccccc3)c2)ccc2ccccc21.[I-] [Compound H12]	VESICLE	560 nm	430 nm	–	–
COc1ccc(C=Cc2ccc3ccccc3[n+]2C)c2ccccc12.[I-] [Compound H14]	VESICLE	590 nm	420-520 nm	–	–
COc1ccc(C=Cc2ccc3ccccc3[n+]2C)cc1O.[I-] [Compound H15]	MITO	610-620 nm	420 nm	–	–
C[n+]1c(C=Cc2ccc(O)cc2)ccc2ccccc21.[I-] [Compound H16]	NUCLEOLI	630 nm	450 nm	–	–
C[n+]1c(C=Cc2ccc(-c3ccccc3)cc2)ccc2ccccc21.[I-] [Compound H17]	VESICLE; also recorded: NUCLEOLI	650 nm	430 nm	540	420 nm
CC(=O)Nc1ccc(C=Cc2ccc3ccccc3[n+]2C)cc1.[I-] [Compound H18]	MITO and NUCLEOLI	650 nm	430 nm	–	–
CN(C)c1ccc(/C=C/c2ccc3ccccc3[n+]2C)cc1.[I-] [Compound H19]	NUCLEOLI	640 nm	490(broad) nm	–	–
C[n+]1c(C=Cc2ccccc2[N+](=O)[O-])ccc2ccccc21.[I-] [Compound H20]	NUCLEOLI	620 nm	–	–	–
C[n+]1c(C=Cc2cccc([N+](=O)[O-])c2)ccc2ccccc21.[I-] [Compound H21]	MITO and NUCLEOLI	630 nm	420-550 nm	–	–
COc1ccc2ccccc2c1C=Cc1ccc2ccccc2[n+]1C.[I-] [Compound H23]	VESICLE; also recorded: NUCLEOLI	580 nm	420-480 nm	–	–
